Legend:
[1] = Determination of pharmacokinetic parameters after oral gavage of prodrug; assay type: in vivo, dogs; settings: plasma; prodrug dosed orally by gavage, dose equivalent to 0.127 mmol; hplc
Protocol: Groups of three dogs were used for each dose level of an experimental compound and one (1) non-cannulated dog was used as a vehicle control. Animals were allowed normal access to chow and water throughout the experiment. The prodrug N-[4-amino-5-(5-iodo-2-isopropyl-4-methoxy-phenoxy)-pyrimidin-2-yl]-2-dipropylamino-acetamide was formulated as an aqueous solution or an aqueous suspension and a dose equivalent to (0.127 mmol) was administered orally by gavage. A blood sample (0.3 mL) was collected from the […] at 0.5, 1, 2, 3, 4, 6 and 8 hours after via the jugular cannula. A sample of at least 0.3 mL of blood was withdrawn from the untreated animals 3 hours after dosing. After 24 hours from dosing, a blood sample was collected from all treated and control animals. Potassium oxalate/NaF was added to the samples which were stored on ice during sampling procedure. The samples were spun in a refrigerated centrifuge at −4° C. as soon as possible and the plasma samples were stored −20° C. immediately after centrifugation and later transferred to a −80° C. freezer until analysis. The concentration of the prodrug N-[4-amino-5-(5-iodo-2-isopropyl-4-methoxy-phenoxy)-pyrimidin-2-yl]-2-dipropylamino-acetamide and the parent compound 5-(5-Iodo-2-isopropyl-4-methoxy-phenoxy)-pyrimidine-2,4-diamine was determined by hplc.

human P2X2/3 receptor = target: T1, human P2X2/3 receptor (Homo sapiens, UniProt P56373+Q9UBL9); assay: P2X2/3 FLIPR (Fluorometric Imaging Plate Reader) assay; assay type: cell-based; settings: CHO-K1 cells transfected with human P2X2/3; agonist α,β-meATP 5 μM; FLIPR calcium fluorescence
T1 construct: expressed in transfected cells; host or cells: CHO-K1
T1 sequence (Q9UBL9 1-471): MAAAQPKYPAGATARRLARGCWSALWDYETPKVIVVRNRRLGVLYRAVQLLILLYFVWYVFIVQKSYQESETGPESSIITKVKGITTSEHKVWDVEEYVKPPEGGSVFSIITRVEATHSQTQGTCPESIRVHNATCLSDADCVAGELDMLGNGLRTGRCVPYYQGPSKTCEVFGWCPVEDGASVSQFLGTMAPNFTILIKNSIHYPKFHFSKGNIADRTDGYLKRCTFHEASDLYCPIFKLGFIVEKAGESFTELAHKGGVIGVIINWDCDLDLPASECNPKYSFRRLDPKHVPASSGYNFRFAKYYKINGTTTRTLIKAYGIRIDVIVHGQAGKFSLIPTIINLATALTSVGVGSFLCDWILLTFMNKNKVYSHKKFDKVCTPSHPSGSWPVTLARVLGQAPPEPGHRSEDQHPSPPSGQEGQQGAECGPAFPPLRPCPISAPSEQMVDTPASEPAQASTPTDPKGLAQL
T1 sequence (P56373 1-397): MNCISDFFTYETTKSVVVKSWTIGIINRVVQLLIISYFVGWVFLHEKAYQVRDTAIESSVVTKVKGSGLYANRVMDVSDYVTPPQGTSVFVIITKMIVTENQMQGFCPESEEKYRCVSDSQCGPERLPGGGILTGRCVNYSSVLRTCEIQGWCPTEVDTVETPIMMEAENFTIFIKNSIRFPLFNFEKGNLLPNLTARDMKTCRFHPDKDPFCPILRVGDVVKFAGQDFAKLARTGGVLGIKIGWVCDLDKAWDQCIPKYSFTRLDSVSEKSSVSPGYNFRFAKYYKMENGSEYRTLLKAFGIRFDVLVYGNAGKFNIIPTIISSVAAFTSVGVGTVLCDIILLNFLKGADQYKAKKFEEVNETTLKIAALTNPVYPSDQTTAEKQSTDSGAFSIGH
Protocol: (§1) CHO-K1 cells were transfected with cloned rat P2X3 or human P2X2/3 receptor subunits and passaged in flasks. 18-24 hours before the FLIPR experiment, cells were released from their flasks, centrifuged, and resuspended in nutrient medium at 2.5×10^5 cells/ml. The cells were aliquoted into black-walled 96-well plates at a density of 50,000 cells/well and incubated overnight in 5% CO2 at 37° C. On the day of the experiment, cells were washed in FLIPR buffer (calcium- and magnesium-free Hank's balanced salt solution, 10 mM HEPES, 2 mM CaCl2, 2.5 mM probenecid; FB). Each well received 100 μl FB and 100 μl of the fluorescent dye Fluo-3 AM [2 μM final conc.]. […]
(§2) Test compounds (dissolved in DMSO at 10 mM and serially diluted with FB) or vehicle were added to each well (25 μl of a 4× solution) and allowed to equilibrate for 20 minutes at room temperature. The plates were then placed in the FLIPR and a baseline fluorescence measurement (excitation at 488 nm and emission at 510-570 nm) was obtained for 10 seconds before a 100 μl/well agonist or vehicle addition. […] Fluorescence was measured for an additional 2 minutes at 1 second intervals after agonist addition. A final addition of ionomycin (5 μM, final concentration) was made to each well of the FLIPR test plate to establish cell viability and maximum fluorescence of dye-bound cytosolic calcium. […]

rat P2X3 receptor = target: T2, rat P2X3 receptor (Rattus norvegicus, UniProt P49654); assay: P2X3 FLIPR (Fluorometric Imaging Plate Reader) assay; assay type: cell-based; settings: CHO-K1 cells transfected with rat P2X3; agonist α,β-meATP 1 μM; FLIPR calcium fluorescence
T2 construct: expressed in transfected cells; host or cells: CHO-K1
T2 sequence (P49654 1-397): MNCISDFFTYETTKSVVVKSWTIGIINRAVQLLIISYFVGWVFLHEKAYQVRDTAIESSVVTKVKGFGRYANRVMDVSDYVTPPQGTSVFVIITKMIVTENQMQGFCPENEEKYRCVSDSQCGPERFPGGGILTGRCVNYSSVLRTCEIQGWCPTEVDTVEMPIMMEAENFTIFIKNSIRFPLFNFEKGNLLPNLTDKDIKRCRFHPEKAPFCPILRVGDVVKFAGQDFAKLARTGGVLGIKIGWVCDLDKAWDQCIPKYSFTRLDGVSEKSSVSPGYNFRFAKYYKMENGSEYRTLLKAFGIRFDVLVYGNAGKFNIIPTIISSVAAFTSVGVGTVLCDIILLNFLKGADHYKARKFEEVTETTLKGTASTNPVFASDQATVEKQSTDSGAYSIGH
Protocol: as §1, §2

Structure (SMILES) | AUC of the prodrug [1] | Cmax of the prodrug [1] | melting point | pIC50 for the P2X2/3 receptor (human P2X2/3 receptor) | pIC50 for the P2X3 receptor (rat P2X3 receptor)
CCCN(CCC)CC(=O)Nc1ncc(Oc2cc(I)c(OC)cc2C(C)C)c(N)n1 [Compound 2, N-[4-Amino-5-(5-iodo-2-isopropyl-4-methoxy-phenoxy)-pyrimidin-2-yl]-2-dipropylamino-acetamide] | 21.1 ng·h/mL | 15.2 ng/mL | 129 to 131 °C |  | 
COc1cc(C(C)C)c(Oc2cnc(NC(=O)CNC3CCCC3)nc2N)cc1I [Compound 3, N-[4-Amino-5-(5-iodo-2-isopropyl-4-methoxy-phenoxy)-pyrimidin-2-yl]-2-cyclopentylamino-acetamide] |  |  | 176.5 to 178 °C |  | 
COc1cc(C(C)C)c(Oc2cnc(NC(=O)C(C)C)nc2N)cc1I [N-[4-Amino-5-(5-iodo-2-isopropyl-4-methoxy-phenoxy) -pyrimidin-2-yl]-isobutyramide] |  |  |  | ~7.4 | approximately 7.8

From US7589090B2, “Diaminopyrimidines as P2X3 and P2X2/3 modulators” (Roche Palo Alto LLC, priority 2007, dated 2009)
